Experiments:
E. coli strain TG1 = assay: MIC of purine base analogues on M9 glucose minimal agar plates, parental strain; assay type: cell-based; details: Escherichia coli, 10^5 to 10^6 cells spotted, growth after 44 h at 37° C.
Method: (§1) The minimal inhibitory concentrations (MIC) of purine base analogues for the strain TG1::PnlpD-yeaS and the parental strain TG1 were determined on M9 glucose minimal agar plates containing graded concentrations of inhibitors. The plates were spotted with 10^5 to 10^6 cells from an overnight culture grown in a minimal medium. The growth was estimated after 44 h incubation at 37° C.

[1] = system: E. coli strain TG1::PnlpD-yeaS; assay: MIC of purine base analogues on M9 glucose minimal agar plates, yeaS-overexpressing strain; assay type: cell-based; details: Escherichia coli, 44 h, read-out: MIC for E. coli strain TG1::PnlpD-yeaS
Method: as §1

Compound	MIC (E. coli strain TG1)	MIC [1]
Nc1nc(N)c2[nH]cnc2n1 [2,6-diaminopurine]	200 µg/mL	600 µg/mL
Sc1ncnc2nc[nH]c12 [6-mercaptopurine]	50 µg/mL	150 µg/mL
Nc1nc2nc[nH]c2c(=S)[nH]1 [6-thioguanine]	30 µg/mL	450 µg/mL
Nc1ncnc2nn[nH]c12 [8-azaadenine]	100 µg/mL	250 µg/mL
